Results reported in patent US8338333B1, “Methods for controlling weeds including kudzu” (priority 2009, dated 2012).

What was measured:
kudzu [1] = assay: Greenhouse trial: kudzu control by reduction of above-ground green biomass; type: in vivo, Pueraria montana (Lour.) Merr. variety lobata (Willd.); conditions: 2 WAT, vs untreated plants, dry weight basis, rate (units/A) differs per treatment as in Table 1
Protocol: (§1) Greenhouse trials: Kudzu was established from seed in flats containing a 2:3 (w:w) mixture of soil (Bosket silt clay loam, fine-silty, mixed thermic Aeric Ochraqualf) and potting media. Seedlings were transferred to 10 cm diameter pots containing the same soil mixture when they developed two true leaves. Pots were placed in the greenhouse, set at 30°±2° C., and equipped with supplemental lighting to provide a 14-h photoperiod. Pots were irrigated as needed and fertilized every three weeks with slow release Osmocote® fertilizer at 1.5 g/pot. […] Plants were selected for size uniformity from a population of approximately three times that necessary to establish a test.
(§2) Herbicides were applied with a pneumatic track sprayer with a TeeJet 8002 flat-fan nozzle delivering 187 L/ha water at 179 kPa. The rates utilized in this study were based on the allowable rates according to the label of the herbicide containers. Kudzu was evaluated for herbicide injury expressed as the percentage of above-ground green biomass remaining at 2 weeks after treatment (WAT) compared to untreated plants (control) on a dry weight basis. Treatments were arranged in a randomized complete block design with four replications and the experiment was repeated. Data were analyzed using the Proc Mixed procedure in SAS and means were separated using a Fisher's Protected least significant difference (LSD) at P=0.05.
In greenhouse studies, shoot biomass was determined at 2 WAT. […] For those skilled in the art of weed control, enhanced control resulting from glyphosate and an ALS inhibitor would not be expected. […] Those with high initial activity against kudzu may provide suitable kudzu control when mixed with glyphosate.

kudzu [2] = assay: Glyphosate and trifloxysulfuron at reduced rates on kudzu (Example 2); type: in vivo, Pueraria montana (Lour.) Merr. variety lobata (Willd.)
Protocol: as §1, §2
The labeled recommended rate of glyphosate for kudzu control was 80 to 106 ounces per acre which was well above the rates tested herein. In Table 2 the rates were 8, 16 and 22 oz formulated glyphosate (WeatherMax™) per acre with trifloxysulfuron at 4.25 grams per acre. The ability to achieve control of kudzu at reduced rates of herbicide was a further indication that a unique effect was observed and allowed control using less pesticide.

mature kudzu vines = assay: Field: post-emergence application to mature kudzu stands (FIG. 4); type: in vivo, Pueraria montana (Lour.) Merr. variety lobata (Willd.); conditions: 3 WAT, single post-emergence application, rates per Table 4
Excerpt: The labeled recommended rate of glyphosate, for kudzu control was 80 to 106 ounces per acre which was well above the rates tested herein. ALS inhibitors were used at label rates. Post-emergence applications of the treatments listed in Table 4 were made to mature kudzu stands growing over a Bermuda grass turf. […] When ALS inhibitors were applied alone, less than 10% control was observed 3 WAT, whereas glyphosate alone provided less than 26% control.

kudzu [3] = assay: Field trial (Holcomb): kudzu regrowth, green biomass dry weight per plot; type: in vivo, Pueraria montana (Lour.) Merr. variety lobata (Willd.); conditions: 6 WAT, applied mid September at maximum labeled rates, untreated control .81, Lsd .41
Excerpt: Field trials: Uniform areas of land infested with kudzu were identified in Holcomb and Yazoo City, Miss. Plots were one by two meters separated by a narrow strip to prevent cross-contamination of herbicides in Holcomb. Plots were three by three meters in Yazoo City. Herbicides were applied with an hand held boom sprayer equipped with a Teejet 8002 EVS flat fan nozzles, adjusted to 207 kPa, and applied at 1.3 m/s in a single pass to deliver 61.2 L/ha to the treatment areas. Commercial formulations of herbicides were applied at their maximum labeled rates. Herbicides were applied to both sites in mid September. In Holcomb, vegetation within a 0.3 m^2 area of each test plot was harvested at 6 weeks after treatment. Green plant matter was collected and dried as an estimate of above-ground healthy biomass. Biomass of treated plots was compared to untreated plots to determine percent control. In Yazoo City, the percentage reduction in leaf cover was determined by counting the number of leaves intersected by a grid containing 100 intersections (at 10 centimeter intervals) per one meter square.
Translocation of herbicides to roots is vital to achieving control of established perennial species like kudzu having deep root systems and a high capacity for regrowth. Other weeds such as redvine, silverleaf nightshade, and yellow and purple nutsedge with deep perenniating underground structures may also be more easily controlled. Without being bound by theory, the field application occurred in September when carbon allocation in kudzu shifts to root reserve replenishment which could facilitate herbicide translocation and may account for the greater activity of the combination of trifloxysulfuron and glyphosate on suppressing regrowth.

kudzu [4] = conditions: thirteen applications over a five year period; cited from earlier work

| Structure (SMILES) | Control (%), kudzu control based on percent reduction of above-ground green biomass (kudzu [1]) [%] | Kudzu Regrowth Gram dry wgt per plot (kudzu [3]) | other results |
| --- | --- | --- | --- |
| COc1cc(OC)nc(NC(=O)NS(=O)(=O)c2ncccc2OCC(F)(F)F)n1 [trifloxysulfuron] | 93 |  | Kudzu Control (%) (kudzu [2]; trifloxysulfuron 4.25 g/A alone): 72% |
| CCOc1nc(F)cc2nc(S(=O)(=O)Nc3c(Cl)cccc3C(=O)O)nn12 [chloransulam] | 11 |  |  |
| COc1cc(Cl)nc(NC(=O)NS(=O)(=O)c2ccccc2C(=O)O)n1 [chlorimuron] | 0 |  |  |
| O=C(O)CNCP(=O)(O)O [glyphosate] |  | .52 Gram dry wgt per plot | control of mature kudzu (mature kudzu vines): less than 26%; Kudzu Control (%) (kudzu [2]; glyphosate 0.35 lb./A alone): 33%; Kudzu Control (%) (kudzu [2]; glyphosate 0.7 lb./A alone): 95%; Kudzu Control (%) (kudzu [2]; glyphosate 1 lb./A alone): 97% |
| CCNc1nc(Cl)nc(NC(C)C)n1 [atrazine] |  | .59 Gram dry wgt per plot |  |
| O=C(O)COc1cc(Cl)c(Cl)cc1Cl [2,4,5-trichlorophenoxyacetic acid] |  |  | killing of all kudzu crowns (kudzu [4]): not successful in killing all crowns |
| COc1nc(C)nc(NC(=O)NS(=O)(=O)c2ccccc2C(=O)O)n1 [metsulfuron] | 87 |  |  |
| CSc1nnc(C(C)(C)C)c(=O)n1N [metribuzin] |  | .51 Gram dry wgt per plot |  |
